According to ChEMBL document CHEMBL4613209, “Quinolone hybrids and their anti-cancer activities: An overview” (Eur J Med Chem, 2019):
Values after ≈ are worked out from the molar mass of the structure shown.

Tests used:
A549 [1] = test: Antiproliferative activity against human A549 cells by CCK8 assay; format: functional, cell-based
MCF-10A = test: Antiproliferative activity against human MCF10A cells by CCK8 assay; format: cell-based
PC-3 = test: Antiproliferative activity against human PC3 cells by CCK8 assay; format: functional, cell-based
MCF7 [2] = test: Antiproliferative activity against human MCF7 cells by CCK8 assay; format: functional, cell-based
HepG2 [3] = test: Antiproliferative activity against human HepG2 cells by CCK8 assay; format: functional, cell-based
Histone deacetylase = test: Inhibition of HDAC (unknown origin); format: protein assay, Homo sapiens
HeLa = test: Antiproliferative activity against human HeLa cells by CCK8 assay; format: functional, cell-based
Tubulin = test: Inhibition of tubulin polymerization (unknown origin); format: protein-complex assay, Homo sapiens
MDA-MB-231 = test: Growth inhibition of human MDA-MB-231 cells after 48 hrs by SRB assay; format: functional; details: MDA-MB-231, 48 h
SiHa = test: Growth inhibition of human SiHa cells after 48 hrs by SRB assay; format: functional
NCI-H460 = test: Growth inhibition of human NCI-H460 cells; format: functional; details: pooled result: one value given for 3 cell lines, strains, targets or settings
HL-60 = test: Anticancer activity against human HL60 cells by MTT assay; format: functional, cell-based
HepG2 [4] = test: Anticancer activity against human HepG2 cells by MTT assay; format: functional, cell-based
HT-29 [5] = test: Anticancer activity against human HT-29 cells by MTT assay; format: functional, cell-based
B16-F10 [6] = test: Cytotoxicity against mouse B16F10 cells assessed as reduction in cell viability; format: functional, cell-based
HT-29 [7] = test: Anticancer activity against human HT-29 cells; format: functional, cell-based
A549 [8] = test: Anticancer activity against human A549 cells; format: functional, cell-based
P388 [9] = test: Anticancer activity against doxorubicin resistant mouse P388 cells; format: functional, cell-based
HT-29 [10] = test: Cytotoxicity against human HT-29 cells assessed as reduction in cell viability; format: functional, cell-based
P388 [11] = test: Cytotoxicity against doxorubicin resistant mouse P388 cells assessed as reduction in cell viability; format: functional, cell-based
P388 [12] = test: Cytotoxicity against mouse P388 cells assessed as reduction in cell viability; format: functional, cell-based
HCT-8 = test: Anticancer activity against human HCT8 cells; format: functional, cell-based
MCF7 [13] = test: Anticancer activity against human MCF7 cells; format: functional, cell-based
[14] = test system: Lewis lung carcinoma cell line; test: Anticancer activity against mouse LLC cells; format: functional, cell-based
B16-F10 [15] = test: Anticancer activity against mouse B16F10 cells; format: functional, cell-based
A549 [16] = test: Cytotoxicity against human A549 cells assessed as reduction in cell viability; format: functional, cell-based
P388 [17] = test: Anticancer activity against mouse P388 cells; format: functional, cell-based

**Q.** How did the IC50 (A549 [1]) turn out when `C[C@H]1COc2c(N3CCN(C)CC3)c(F)cc3c(=O)c(C(=O)OCc4cn(CCCCCC(=O)NO)nn4)cn1c23` was run?
**A.** Its IC50 is 0.3 to 12.8 µM.

**Q.** And the IC50 (MCF-10A)?
**A.** Its IC50 is over 100 µM.

**Q.** And the IC50 (PC-3)?
**A.** The IC50 was 0.3 to 12.8 µM.

**Q.** What about the IC50 (MCF7 [2]) of the same compound?
**A.** Its IC50 is 0.3 to 12.8 µM.

**Q.** And the IC50 (HepG2 [3])?
**A.** The IC50 was 0.3 to 12.8 µM.

**Q.** And the IC50 (Histone deacetylase)?
**A.** Its IC50 is 0.021 to 0.85 µM.

**Q.** And the IC50 (HeLa)?
**A.** Its IC50 is 0.3 to 12.8 µM.

**Q.** What about the IC50 (Tubulin) of the same compound?
**A.** Its IC50 is 1.79 to 6.36 µM.

**Q.** Which results are given for `CCn1cc(C(=O)O)c(=O)c2cnc(N3CCN(C(=O)CCSc4nnnn4Cc4ccccc4)CC3)nc21`?
**A.** GI50 (MDA-MB-231): ≤ 0.1 µM; GI50 (SiHa): ≤ 0.1 µM

**Q.** With `O=c1[nH]c2ccccc2c2[nH]c3ccccc3c12` as the compound, how does the GI50 (NCI-H460) read?
**A.** The GI50 was 19 µM.

**Q.** Which GI50 (NCI-H460) does the source give for `O=c1[nH]c2ccc(Cl)cc2c2[nH]c3ccccc3c12` here?
**A.** Its GI50 is 19 µM.

**Q.** What does the source list for `CCOC(=O)c1cn(Cc2cn(-c3ccc(C)cc3)nn2)c2ccc(Cl)cc2c1=O`?
**A.** IC50 (HL-60): 13.1 to 88.4 µM; IC50 (HepG2 [4]): 13.1 to 88.4 µM; IC50 (HT-29 [5]): 13.1 to 88.4 µM

**Q.** How did the GI50 (NCI-H460) turn out when `COc1ccc2[nH]c(=O)c3c4ccccc4oc3c2c1` was run?
**A.** The GI50 was 10.7 to 53.7 µM.

**Q.** Which results are given for `C[C@H]1COc2c(N3CCN(C)CC3)c(F)cc3c(=O)c(C(=O)NCc4cn(CCCCCCC(=O)NO)nn4)cn1c23`?
**A.** IC50 (A549 [1]): 0.3 to 4.9 µM; IC50 (MCF-10A): > 100 µM; IC50 (PC-3): 0.3 to 4.9 µM; IC50 (MCF7 [2]): 0.3 to 4.9 µM; IC50 (HepG2 [3]): 0.3 to 4.9 µM; IC50 (Histone deacetylase): 0.021 to 0.85 µM; IC50 (HeLa): 0.3 to 4.9 µM; IC50 (Tubulin): 1.79 to 6.36 µM

**Q.** Which IC50 (B16-F10 [6]) does the source give for `Cc1ccc(NC2CCN(C3C(F)=Cc4c5n(cc(C(=O)O)c4=O)-c4ccccc4OC53)C2)cc1` (stereo not given) here?
**A.** The IC50 was 0.011 to 0.59 µg/mL (≈ 0.0232 to 1.25 µM).

**Q.** What about the IC50 (HT-29 [7]) of the same compound?
**A.** The IC50 was 0.03 to 0.49 µM.

**Q.** What about the IC50 (A549 [8]) of the same compound?
**A.** Its IC50 is 0.03 to 0.49 µM.

**Q.** What about the IC50 (P388 [9]) of the same compound?
**A.** The IC50 was 0.03 to 0.49 µM.

**Q.** What about the IC50 (HT-29 [10]) of the same compound?
**A.** The IC50 was 0.011 to 0.59 µg/mL (≈ 0.0232 to 1.25 µM).

**Q.** And the IC50 (P388 [11])?
**A.** Its IC50 is 0.011 to 0.59 µg/mL (≈ 0.0232 to 1.25 µM).

**Q.** And the IC50 (P388 [12])?
**A.** The IC50 was 0.011 to 0.59 µg/mL (≈ 0.0232 to 1.25 µM).

**Q.** And the IC50 (HCT-8)?
**A.** The IC50 was 0.03 to 0.49 µM.

**Q.** And the IC50 (MCF7 [13])?
**A.** Its IC50 is 0.03 to 0.49 µM.

**Q.** And the IC50 [14]?
**A.** The IC50 was 0.03 to 0.49 µM.

**Q.** What about the IC50 (B16-F10 [15]) of the same compound?
**A.** The IC50 was 0.03 to 0.49 µM.

**Q.** And the IC50 (A549 [16])?
**A.** Its IC50 is 0.011 to 0.59 µg/mL (≈ 0.0232 to 1.25 µM).

**Q.** What about the IC50 (P388 [17]) of the same compound?
**A.** The IC50 was 0.03 to 0.49 µM.

**Q.** `O=C(O)c1cn2c3c(c1=O)C=C(F)C(N1CCC(Nc4ccccc4)C1)C3Oc1ccccc1-2` (stereo not given) was tested. Which IC50 (B16-F10 [6]) did it give?
**A.** The IC50 was 0.011 to 0.59 µg/mL (≈ 0.0239 to 1.28 µM).

**Q.** And the IC50 (HT-29 [7])?
**A.** Its IC50 is 0.03 to 0.49 µM.

**Q.** And the IC50 (A549 [8])?
**A.** The IC50 was 0.03 to 0.49 µM.

**Q.** And the IC50 (P388 [9])?
**A.** Its IC50 is 0.03 to 0.49 µM.

**Q.** What about the IC50 (HT-29 [10]) of the same compound?
**A.** Its IC50 is 0.011 to 0.59 µg/mL (≈ 0.0239 to 1.28 µM).

**Q.** And the IC50 (P388 [11])?
**A.** Its IC50 is 0.011 to 0.59 µg/mL (≈ 0.0239 to 1.28 µM).

**Q.** What about the IC50 (P388 [12]) of the same compound?
**A.** Its IC50 is 0.011 to 0.59 µg/mL (≈ 0.0239 to 1.28 µM).

**Q.** What about the IC50 (HCT-8) of the same compound?
**A.** The IC50 was 0.03 to 0.49 µM.

**Q.** And the IC50 (MCF7 [13])?
**A.** The IC50 was 0.03 to 0.49 µM.

**Q.** What about the IC50 [14] of the same compound?
**A.** The IC50 was 0.03 to 0.49 µM.

**Q.** And the IC50 (B16-F10 [15])?
**A.** Its IC50 is 0.03 to 0.49 µM.

**Q.** What about the IC50 (A549 [16]) of the same compound?
**A.** Its IC50 is 0.011 to 0.59 µg/mL (≈ 0.0239 to 1.28 µM).

**Q.** What about the IC50 (P388 [17]) of the same compound?
**A.** Its IC50 is 0.03 to 0.49 µM.
